Data taken from ChEMBL document CHEMBL4346678, “Synthesis and anti-cancer evaluation of folic acid-peptide- paclitaxel conjugates for addressing drug resistance” (Eur J Med Chem, 2019).
Values after ≈ are worked out from the molar mass of the structure shown. Active and inactive are the calls of the source. No cut-off for these calls is given here. Starred links: 1 amine or outer side, 2 acyl side, 3 side chain; linkers in the order of their positions; H or OH if unused. Residues, ends and D or L forms follow the SMILES beside them. *: point of attachment. X1 = CC(=O)O[C@H]1C(=O)[C@@]2(C)[C@H]([C@H](OC(=O)c3ccccc3)[C@]3(O)C[C@H](OC(=O)[C@H](OC(=O)CCCCCN4C(=O)CC(*)C4=O)[C@@H](NC(=O)c4ccccc4)c4ccccc4)C(C)=C1C3(C)C)[C@]1(OC(C)=O)CO[C@@H]1C[C@@H]2O; Pteroyl = Nc1nc2ncc(CNc3ccc(C(=O)*)cc3)nc2c(=O)[nH]1; γGlu = O=C(O)[C@H](CCC(=O)[*:2])N[*:1]

Assays:
[1] = tested on: MCF7/PTX; assay: Induction of apoptosis in human MCF7/PTX cells assessed as live cells at 3 uM incubated for 12 hrs by Annexin V-FITC/propidium iodide staining based flow cytometric analysis (reference value: 95.9%); type: functional
[2] = tested on: SK-OV-3; assay: Cytotoxicity against human SKOV3 cells incubated for 48 hrs by MTT assay; type: functional, cell-based; conditions: SK-OV-3, 48 h
[3] = tested on: MCF7/PTX; assay: Induction of apoptosis in human MCF7/PTX cells assessed as necrotic cells at 3 uM incubated for 12 hrs by Annexin V-FITC/propidium iodide staining based flow cytometric analysis (reference value: 2.1%); type: functional
[4] = tested on: A2780; assay: Cytotoxicity against human A2780 cells incubated for 48 hrs by MTT assay; type: functional, cell-based; conditions: A2780, 48 h
[5] = tested on: MCF7/PTX; assay: Cytotoxicity against human MCF7/PTX cells incubated for 48 hrs by MTT assay; type: functional, cell-based
[6] = tested on: Erythrocyte; assay: Hemolytic activity in Wistar rat erythrocytes incubated for 1 hr; type: ADME, cell-based
[7] = tested on: MCF7/PTX; assay: Cytotoxicity against human MCF7/PTX cells at 1 to 6 uM incubated for 48 hrs by MTT assay; type: functional, cell-based
[8] = tested on: MCF7; assay: Cytotoxicity against human MCF7 cells incubated for 48 hrs by MTT assay; type: functional, cell-based; conditions: MCF7, 48 h
[9] = tested on: MCF7/PTX; assay: Induction of apoptosis in human MCF7/PTX cells assessed as early apoptotic cells at 3 uM incubated for 12 hrs by Annexin V-FITC/propidium iodide staining based flow cytometric analysis (reference value: 1.1%); type: functional
[10] = Drug uptake in human MCF7/PTX cells at 1 to 6 uM incubated for 2 hrs using FITC-labelled compound by flow cytometric analysis; type: ADME, cell-based
[11] = tested on: MCF7/PTX; assay: Induction of membrane disruption in human MCF7/PTX cells incubated for 12 hrs by LDH release assay; type: functional, cell-based
[12] = tested on: MCF7/PTX; assay: Induction of apoptosis in human MCF7/PTX cells assessed as late apoptotic cells at 3 uM incubated for 12 hrs by Annexin V-FITC/propidium iodide staining based flow cytometric analysis (reference value: 0.9%); type: functional
[13] = tested on: MCF7/PTX; assay: Induction of membrane disruption in human MCF7/PTX cells at 3 uM incubated for 12 hrs by AO/EB double staining based fluorescence microscopic method; type: functional, cell-based
[14] = tested on: K562; assay: Cytotoxicity against human K562 cells incubated for 48 hrs by MTT assay; type: functional, cell-based; conditions: K562, 48 h
[15] = tested on: HUVEC; assay: Cytotoxicity against HUVEC incubated for 48 hrs by MTT assay; type: cell-based; conditions: Homo sapiens
[16] = tested on: MCF7/PTX; assay: Induction of membrane disruption in human MCF7/PTX cells incubated for 12 hrs by AO/EB double-staining based fluorescence microscopic method; type: functional, cell-based
[17] = tested on: MCF7/PTX; assay: Induction of apoptosis in human MCF7/PTX cells assessed as increase in cleaved caspase 3 level in cytoplasm at 3 uM incubated for 2 hrs by Western blot analysis; type: functional, cell-based
[18] = tested on: MCF7; assay: Cytotoxicity against human MCF7 cells at 1 to 6 uM incubated for 48 hrs by MTT assay; type: functional, cell-based
[19] = tested on: MCF7/PTX; assay: Induction of apoptosis in human MCF7/PTX cells assessed increase in cytochrome-c expression in cytoplasm at 3 uM incubated for 2 hrs by Western blot analysis; type: functional, cell-based
[20] = tested on: MCF7/PTX; assay: Induction of mitochondrial membrane potential loss in human MCF7/PTX cells at 3 uM incubated for 12 hrs by JC1 staining-based confocal microscopic method; type: functional, cell-based
[21] = biological target: Tubulin (Sus scrofa) (UniProt P02554+P02550); assay: Induction of porcine brain tubulin polymerization at 3 uM by fluorescence analysis
Sequence of Tubulin (Sus scrofa) (P02550 whole entry, looked up): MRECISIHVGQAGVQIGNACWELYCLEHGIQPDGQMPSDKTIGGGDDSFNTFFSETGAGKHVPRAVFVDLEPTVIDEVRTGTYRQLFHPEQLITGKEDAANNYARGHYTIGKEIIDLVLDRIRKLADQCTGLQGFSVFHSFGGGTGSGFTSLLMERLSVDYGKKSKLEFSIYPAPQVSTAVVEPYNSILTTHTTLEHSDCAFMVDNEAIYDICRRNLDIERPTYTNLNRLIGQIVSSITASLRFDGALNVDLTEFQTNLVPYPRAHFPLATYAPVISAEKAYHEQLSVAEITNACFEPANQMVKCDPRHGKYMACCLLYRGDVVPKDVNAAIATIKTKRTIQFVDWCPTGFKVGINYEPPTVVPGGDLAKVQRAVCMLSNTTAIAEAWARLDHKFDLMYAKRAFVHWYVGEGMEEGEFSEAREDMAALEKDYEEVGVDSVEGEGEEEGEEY
Sequence of Tubulin (Sus scrofa) (P02554 whole entry, looked up): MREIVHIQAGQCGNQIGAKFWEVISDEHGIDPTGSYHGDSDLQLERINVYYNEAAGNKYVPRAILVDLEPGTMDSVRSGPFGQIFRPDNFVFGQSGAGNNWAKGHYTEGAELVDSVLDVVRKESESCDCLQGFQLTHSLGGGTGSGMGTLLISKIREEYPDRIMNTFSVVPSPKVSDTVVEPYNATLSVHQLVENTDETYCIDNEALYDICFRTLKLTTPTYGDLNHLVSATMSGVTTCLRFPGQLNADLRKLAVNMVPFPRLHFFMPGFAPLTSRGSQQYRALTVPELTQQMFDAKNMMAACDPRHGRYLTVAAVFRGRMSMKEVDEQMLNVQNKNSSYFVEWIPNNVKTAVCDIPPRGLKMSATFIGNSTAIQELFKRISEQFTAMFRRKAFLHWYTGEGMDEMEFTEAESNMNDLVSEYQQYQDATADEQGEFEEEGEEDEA

[22] = Antitumor activity against […] cells xenografted in ICR mouse assessed as reduction in tumor volume at 12 umol/kg administered once every 2 days via peritumoral route for 2 weeks measured for 22 days by caliper analysis relative to control; type: functional
[23] = Aqueous solubility of the compound; type: physicochemical; conditions: buffer
[24] = tested on: MCF7/PTX; assay: Induction of apoptosis in human MCF7/PTX cells assessed as necrotic cells at 3 uM incubated for 12 hrs by Annexin V-FITC/propidium iodide staining based flow cytometric analysis in presence of paclitaxel (reference value: 2.1%); type: functional
[25] = tested on: MCF7/PTX; assay: Induction of apoptosis in human MCF7/PTX cells assessed as early apoptotic cells at 3 uM incubated for 12 hrs by Annexin V-FITC/propidium iodide staining based flow cytometric analysis in presence of paclitaxel (reference value: 1.1%); type: functional
[26] = tested on: MCF7/PTX; assay: Induction of apoptosis in human MCF7/PTX cells assessed as live cells at 3 uM incubated for 12 hrs by Annexin V-FITC/propidium iodide staining based flow cytometric analysis in presence of paclitaxel (reference value: 95.9%); type: functional
[27] = Half life in Wistar rat plasma at 500 ug/ml measured over 24 hrs at 37 degC by UPLC/MS analysis; type: ADME, cell-free
[28] = tested on: MCF7/PTX; assay: Induction of apoptosis in human MCF7/PTX cells assessed as late apoptotic cells at 3 uM incubated for 12 hrs by Annexin V-FITC/propidium iodide staining based flow cytometric analysis in presence of paclitaxel (reference value: 0.9%); type: functional

Row | Compound | Drug uptake [10] | Activity [1] | IC50 [2] | Activity [3] | IC50 [4] | IC50 [5] | Activity [6] | Activity [7] | IC50 [8] | Activity [9] | Activity [11] | Activity [12] | Activity [13] | IC50 [14] | IC50 [15] | other results
1 | CC(=O)O[C@H]1C(=O)[C@@]2(C)[C@H]([C@H](OC(=O)c3ccccc3)[C@]3(O)C[C@H](OC(=O)[C@H](OC(=O)CCCCCN4C(=O)CC(SC[C@H](NC(=O)[C@H](CCCCN)NC(=O)[C@H](CCCCN)NC(=O)[C@H](CC(C)C)NC(=O)[C@H](CCCCN)NC(=O)[C@H](CCCNC(=N)N)NC(=O)[C@H](Cc5ccccc5)NC(=O)[C@H](Cc5ccccc5)NC(=O)[C@H](CCCCN)NC(=O)[C@H](CCCCN)NC(=O)[C@H](Cc5ccccc5)NC(=O)[C@H](CCCNC(=N)N)NC(=O)[C@H](CCCCN)NC(=O)[C@@H](NC(=O)[C@@H](N)CC(C)C)C(C)C)C(=O)N[C@H](C(=O)N[C@@H](CC(C)C)C(=O)N[C@@H](CC(C)C)C(N)=O)C(C)C)C4=O)[C@@H](NC(=O)c4ccccc4)c4ccccc4)C(C)=C1C3(C)C)[C@]1(OC(C)=O)CO[C@@H]1C[C@@H]2O (stereo not given in full) (H-LVKRFKKFFRKLKKC(X1)VLL-NH2) | Active | 74.4% | 7.17 µM | 3.2% | 2.69 µM | 6.11 µM | Toxic | inactive | 2.15 µM | 2.2% | Dose-dependent effect | 20.2% | Active | 5.9 µM | 31.6 µM | 
2 | CC(=O)O[C@H]1C(=O)[C@@]2(C)[C@H]([C@H](OC(=O)c3ccccc3)[C@]3(O)C[C@H](OC(=O)[C@H](OC(=O)CCCCCN4C(=O)CC(SC[C@H](NC(=O)[C@H](CCCNC(=N)N)NC(=O)[C@H](CCCNC(=N)N)NC(=O)[C@H](CC(C)C)NC(=O)[C@H](CCCNC(=N)N)NC(=O)[C@H](CCCNC(=N)N)NC(=O)[C@H](Cc5ccccc5)NC(=O)[C@H](Cc5ccccc5)NC(=O)[C@H](CCCNC(=N)N)NC(=O)[C@H](CCCNC(=N)N)NC(=O)[C@H](Cc5ccccc5)NC(=O)[C@H](CCCNC(=N)N)NC(=O)[C@H](CCCNC(=N)N)NC(=O)[C@@H](NC(=O)[C@@H](N)CC(C)C)C(C)C)C(=O)N[C@H](C(=O)N[C@@H](CC(C)C)C(=O)N[C@@H](CC(C)C)C(N)=O)C(C)C)C4=O)[C@@H](NC(=O)c4ccccc4)c4ccccc4)C(C)=C1C3(C)C)[C@]1(OC(C)=O)CO[C@@H]1C[C@@H]2O (stereo not given in full) (H-LVRRFRRFFRRLRRC(X1)VLL-NH2) |  | 64.7% | 6.61 µM | 3.6% | 2.79 µM | 5.53 µM | Toxic |  | 1.98 µM | 1.7% | Dose-dependent effect | 30.2% | Active | 3.82 µM | 37.2 µM | 
3 | CC(=O)O[C@H]1C(=O)[C@@]2(C)[C@H]([C@H](OC(=O)c3ccccc3)[C@]3(O)C[C@H](OC(=O)[C@H](OC(=O)CCCCCN4C(=O)CC(SC[C@H](NC(=O)[C@H](CCCCN)NC(=O)[C@H](CCCCN)NC(=O)[C@H](CC(C)C)NC(=O)[C@H](CCCCN)NC(=O)[C@H](CCCNC(=N)N)NC(=O)[C@H](Cc5ccccc5)NC(=O)[C@H](Cc5ccccc5)NC(=O)[C@H](CCCCN)NC(=O)[C@H](CCCCN)NC(=O)[C@H](Cc5ccccc5)NC(=O)[C@H](CCCNC(=N)N)NC(=O)[C@H](CCCCN)NC(=O)[C@@H](NC(=O)[C@H](CC(C)C)NC(=O)CC[C@H](NC(=O)c5ccc(NCc6cnc7nc(N)[nH]c(=O)c7n6)cc5)C(=O)O)C(C)C)C(=O)N[C@H](C(=O)N[C@@H](CC(C)C)C(=O)N[C@@H](CC(C)C)C(N)=O)C(C)C)C4=O)[C@@H](NC(=O)c4ccccc4)c4ccccc4)C(C)=C1C3(C)C)[C@]1(OC(C)=O)CO[C@@H]1C[C@@H]2O (stereo not given in full) ({Pteroyl-γGlu}-LVKRFKKFFRKLKKC(X1)VLL-NH2) | Active | 56.3% | 5.92 µM | 8% | 1.95 µM | 4.54 µM | Toxic | Active | 1.79 µM | 1.1% | Dose-dependent effect | 34.6% | Active | 5.38 µM | 48.6 µM | Activity [16]: Dose-dependent effect; Activity [17]: Active; Activity [18]: Active; Activity [19]: Active; Activity [20]: Active
4 | CC(=O)O[C@H]1C(=O)[C@@]2(C)[C@H]([C@H](OC(=O)c3ccccc3)[C@]3(O)C[C@H](OC(=O)[C@H](O)[C@@H](NC(=O)c4ccccc4)c4ccccc4)C(C)=C1C3(C)C)[C@]1(OC(C)=O)CO[C@@H]1C[C@@H]2O [PACLITAXEL] |  | 93.2% | 6.29 µM | 3.9% | 2.85 µM | 54.8 µM |  |  |  | 1.3% |  | 1.5% |  | 5.8 µM | 9.39 µM | Activity [21]: Active; inhibition in vivo at 12 µmol/kg [22]: 49%; solubility [23]: 4 µg/mL (≈ 4.68 µM)
5 | H-LVKRFKKFFRKLKKCVLL-NH2 |  | 91.1% | 14.7 µM | 4.6% | 13.6 µM | 15.2 µM |  |  | 12.3 µM | 1.6% |  | 2.6% |  | 13.7 µM | 40.2 µM | 
6 | H-LVRRFRRFFRRLRRCVLL-NH2 |  | 83.5% | 13.6 µM | 5.7% | 11.5 µM | 17.1 µM |  |  | 8.61 µM | 1.7% |  | 9% |  | 9.49 µM | 44.5 µM | Activity [24]: 5.8%; Activity [25]: 1.7%; Activity [26]: 76.7%; half-life at 500 ug/ml [27]: 48 min; Activity [28]: 15.9%
